Tests used:
NK-92 (IL-2 2.5 ng/mL) [1] = test: percent inhibition of viability; higher = more inhibition; conditions: 72 h
YT (IL-2 2.5 ng/mL) [2] = test: as above; conditions: 72 h
DERL-7 (IL-2 2.5 ng/mL) [3] = test: as above; conditions: 72 h
NKL (IL-2 2.5 ng/mL) [4] = test: as above; conditions: 72 h
IMC-1 (IL-2 20 ng/mL) [5] = test: as above; conditions: 72 h
[6] = test system: normal primary NK cells, pool 1 (3 donors) (IL-2 2.5 ng/mL); test: as above; conditions: 72 h
[7] = test system: normal primary NK cells, pool 2 (3 donors) (IL-2 2.5 ng/mL); test: as above; conditions: 72 h
NK-YS (IL-2 2.5 ng/mL) [8] = test: as above; conditions: 72 h
KHYG-1 (IL-2 2.5 ng/mL) [9] = test: as above; conditions: 72 h
[10] = test system: normal primary NK cells, pool 1 (3 donors), resting (IL-2 0 ng/mL); test: as above; conditions: 72 h
[11] = test system: normal primary NK cells, pool 3 (3 donors) (IL-2 2.5 ng/mL); test: as above; conditions: 72 h
SNK-6 (IL-2 2.5 ng/mL) [12] = test: as above; conditions: 72 h
KAI3 (IL-2 2.5 ng/mL) [13] = test: as above; conditions: 72 h
[14] = test system: normal NK cells expanded with K562-aAPC; test: drug sensitivity score (DSS) (DSS units); higher = more sensitive; extreme values may be limits of the assay; conditions: 72 h; IL-2 2.5 ng/mL
Procedure: (§1)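 Drug sensitivity and resistance testing on K562-aAPC-expanded normal NK cells: 5 concentrations (10-fold steps over a 10,000-fold range), 72 h at 37 °C, viability by CellTiter-Glo normalised to DMSO and benzethonium chloride controls; DSS from the fitted curve.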

NK-92 (IL-2 2.5 ng/mL) [15] = test: as above; conditions: 72 h
YT (IL-2 2.5 ng/mL) [16] = test: as above; conditions: 72 h
DERL-7 (IL-2 2.5 ng/mL) [17] = test: as above; conditions: 72 h
NKL (IL-2 2.5 ng/mL) [18] = test: as above; conditions: 72 h
IMC-1 (IL-2 20 ng/mL) [19] = test: as above; conditions: 72 h
[20] = test system: normal primary NK cells, pool 1 (3 donors) (IL-2 2.5 ng/mL); test: as above; conditions: 72 h
[21] = test system: normal primary NK cells, pool 2 (3 donors) (IL-2 2.5 ng/mL); test: as above; conditions: 72 h
NK-YS (IL-2 2.5 ng/mL) [22] = test: as above; conditions: 72 h
KHYG-1 (IL-2 2.5 ng/mL) [23] = test: as above; conditions: 72 h
[24] = test system: normal primary NK cells, pool 1 (3 donors), resting (IL-2 0 ng/mL); test: as above; conditions: 72 h
[25] = test system: normal primary NK cells, pool 3 (3 donors) (IL-2 2.5 ng/mL); test: as above; conditions: 72 h
SNK-6 (IL-2 2.5 ng/mL) [26] = test: as above; conditions: 72 h
KAI3 (IL-2 2.5 ng/mL) [27] = test: as above; conditions: 72 h
[28] = test system: normal NK cells expanded with K562-aAPC; test: percent inhibition of viability; higher = more inhibition; conditions: 72 h, IL-2 2.5 ng/mL
Procedure: as §1

CCn1c(=O)c(-c2cc[nH]n2)cc2c(C)nc(N)nc21 [Voxtalisib] (max concentration tested 10000 nM)
percent inhibition of viability [%]
Conditions | 1 nM | 10 nM | 100 nM | 1000 nM | 10000 nM
DERL-7 (IL-2 2.5 ng/mL) [3] | 5.41 | 4.21 | 13.1 | 64 | 90.5
IMC-1 (IL-2 20 ng/mL) [5] | -10.6 | -2.45 | -10.8 | -9.7 | 16.3
KAI3 (IL-2 2.5 ng/mL) [13] | -4.78 | -4.19 | 6.21 | 42.3 | 75.8
KHYG-1 (IL-2 2.5 ng/mL) [9] | -9 | -5.41 | -5.59 | 17.8 | 79.4
NK-92 (IL-2 2.5 ng/mL) [1] | -8.65 | 11.8 | 10.3 | 47.6 | 82.8
NK-YS (IL-2 2.5 ng/mL) [8] | -5.07 | 0.15 | 3.01 | 23.8 | 69.5
NKL (IL-2 2.5 ng/mL) [4] | -8.64 | -12.9 | -1.2 | 46.7 | 80.6
SNK-6 (IL-2 2.5 ng/mL) [12] | -15.8 | -23.8 | -25.5 | -0.25 | 72.2
YT (IL-2 2.5 ng/mL) [2] | -4.53 | -3.54 | 0.98 | 38.7 | 88.6
[6] | -5.05 | 2.34 | 10.6 | 28.2 | 49.9
[7] | -10.4 | 2.91 | 12.1 | 20.6 | 40.3
[10] | -7.13 | 11.3 | 7.69 | 23 | 43.4
[11] | -5.2 | -0.71 | 13.1 | 17.8 | 35.1
[28] | 0.41 | -5.61 | 9.15 | 33.9 | 60.2

Conditions | drug sensitivity score
DERL-7 (IL-2 2.5 ng/mL) [17] | 13.8
IMC-1 (IL-2 20 ng/mL) [19] | 0.15
KAI3 (IL-2 2.5 ng/mL) [27] | 9.29
KHYG-1 (IL-2 2.5 ng/mL) [23] | 7.22
NK-92 (IL-2 2.5 ng/mL) [15] | 10.7
NK-YS (IL-2 2.5 ng/mL) [22] | 7.02
NKL (IL-2 2.5 ng/mL) [18] | 10.1
SNK-6 (IL-2 2.5 ng/mL) [26] | 3.96
YT (IL-2 2.5 ng/mL) [16] | 9.92
[14] | 7.48
[20] | 6.3
[21] | 4.74
[24] | 5.05
[25] | 4.03
